{"source": "patent US8741951B2", "about": "“Non-steroidal compounds for androgen receptor modulation” (CNR—Consiglio Nazionale delle Ricerche, priority 2009, dated 2014)", "type_in_all_cases": "cell-based", "key": {"LNCaP cells": {"system": "LNCaP cells", "assay": "SRB in vitro chemosensitivity assay, LNCaP", "experimental": "The cell lines were maintained as a monolayer at 37° C. and subcultured weekly. Culture medium was composed of RPMI 1640 supplemented with 10% fetal calf serum and 1% glutamine (Mascia Brunelli s.p.a., Milan, Italy). Cells were used in the exponential growth phase in all the experiments.\nCompounds were dissolved in acetone or DMSO (AITES) ([…]) and stored at −20° C. The cell culture containing acetone at the highest concentration was used as the control.\n(§1) Sulforhodamine B (SRB) assay was used according to the method by Skehan et al. (JNCI, 1990). Briefly, cells were collected by trypsinization, counted and plated at a density of 5,000 cells/well in 96-well flat-bottomed microtiter plates (100 μl of cell suspension/well). In the chemosensitivity assay, experiments were run in octuplicate, and each experiment was repeated three times. The optical density (OD) of cells was determined at a wavelength of 490 nm by a colorimetric plate reader.\n(§2) If ODtreated is above ODzero, treatment has induced a cytostatic effect, whereas if ODtreated is below ODzero, cell killing has occurred. The ODzero depicts the cell number at the moment of drug addition, the ODcontrol reflects the cell number in untreated wells and the ODtreated reflects the cell number in treated wells on the day of the assay.\nFIGS. 2-11 show the cytotoxic activity of the derivative compounds of the invention on the LNCaP and LNCaP-AR cell lines. The authors examined the antitumour activity of the compounds for which the synthesis is described above, in the hormone-sensitive prostate cancer cell line LNCaP and in its derivative cell line LNCaP-AR, expressing high level of AR and with hormone refractory prostate cancer (HRPC) features. The novel compounds were tested at the increasing concentrations of […], 0.2, 2.0, and 20.0 μM. The highest dose used was chosen on the basis of the clinically achievable peak plasma concentration reported in the literature for bicalutamide (Cockshott I D. Clin Pharmacokinet. 2004; 43(13): 855-78). After 144-hr exposure time the cytotoxic effect of the molecules was calculated according to the method of Monks et al. (Monks A, Scudiero D, Skehan P, et al. Feasibility of a high-flux anticancer drug screen using a diverse panel of cultured human tumor cell lines. J Natl Cancer Inst. 1991; 83: 757-66.)"}, "[1]": {"system": "human hepatoblastoma cell line HepG2", "assay": "Cytotoxic activity on HepG2 (hepato-toxicity)", "conditions": "HepG2, up to highest concentration tested", "experimental": "as §1, §2\nFIG. 27-36 show the cytotoxic activity of the drugs on the human hepatoblastoma cell line HepG2. The authors evaluated in vitro the potential hepato-toxicity of some of the novel compounds on HepG2 cell line, a human hepatoblastoma cell line that retains the specialized function of normal hepatocytes [Knowles B B, Howe C C, Aden D P. Human hepatocellular carcinoma cell lines secretes the major plasma proteins and hepatitis B surface antigen. Science 1980, 209:497-499; Aden D P, Vogel A, Plortkin S, Damjanov I, Knowles B B. Controlled synthesis of HBS Ag in a differentiated human liver carcinoma-derived cell line. Nature, 1979, 282:615-616]."}, "[2]": {"molecular_target": "T1, human androgen receptor (hAR) (Homo sapiens, UniProt P10275)", "T1 construct": "expressed in transfected cells; host or cells: Cos-7", "T1 sequence (P10275 1-920)": "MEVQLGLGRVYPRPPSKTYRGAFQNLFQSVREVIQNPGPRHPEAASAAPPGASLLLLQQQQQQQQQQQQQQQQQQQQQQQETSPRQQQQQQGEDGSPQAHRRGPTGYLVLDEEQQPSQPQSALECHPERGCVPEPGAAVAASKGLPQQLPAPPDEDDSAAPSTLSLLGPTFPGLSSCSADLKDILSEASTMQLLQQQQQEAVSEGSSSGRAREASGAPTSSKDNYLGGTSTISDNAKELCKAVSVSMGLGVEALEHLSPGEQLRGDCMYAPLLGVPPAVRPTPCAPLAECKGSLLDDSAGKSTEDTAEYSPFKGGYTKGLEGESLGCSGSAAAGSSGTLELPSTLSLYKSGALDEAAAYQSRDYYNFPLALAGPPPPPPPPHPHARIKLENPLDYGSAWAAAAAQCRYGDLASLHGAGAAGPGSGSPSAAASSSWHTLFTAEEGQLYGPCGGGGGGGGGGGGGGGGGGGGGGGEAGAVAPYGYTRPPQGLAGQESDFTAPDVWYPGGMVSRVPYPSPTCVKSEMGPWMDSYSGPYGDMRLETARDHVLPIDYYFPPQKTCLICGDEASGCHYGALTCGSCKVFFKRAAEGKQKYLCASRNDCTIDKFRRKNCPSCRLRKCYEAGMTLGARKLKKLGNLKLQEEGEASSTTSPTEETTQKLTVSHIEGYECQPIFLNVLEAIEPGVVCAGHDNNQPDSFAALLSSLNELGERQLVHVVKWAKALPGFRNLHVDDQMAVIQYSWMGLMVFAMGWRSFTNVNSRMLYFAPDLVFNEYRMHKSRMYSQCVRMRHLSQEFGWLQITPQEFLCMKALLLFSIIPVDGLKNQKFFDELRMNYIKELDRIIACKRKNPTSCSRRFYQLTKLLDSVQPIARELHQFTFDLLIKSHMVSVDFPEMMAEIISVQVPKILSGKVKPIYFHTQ", "assay": "hAR transactivation assay (ARE-luc) in Cos-7 cells", "from_the_text": "The cDNA coding hAR was cloned into the pSG5 expression vector as reported previously [Chang, C. S., J. Kokontis, and S. T. Liao 1988 Molecular cloning of human and rat complementary DNA encoding androgen receptors Science 240:324-326].\nThe 3416 construct (ARE-Luc), containing four copies of the wild-type slp-HRE2 (5′-TGGTCAgccAGTTCT-3′) was cloned in the NheI site in pTK-TATA-Luc [Verrijdt, G., E. Schoenmakers, A. Haelens, B. Peeters, G. Verhoeven, W. Rombauts, and F. Claessens 2000 Change of specificity mutations in androgen selective enhancers J. Biol. Chem. 275:12298-12305].\nFor androgen-stimulated transcriptional analysis, 32×10^4 Cos-7 cells were plated in phenol red-free DMEM containing 5% charcoal-stripped serum. After 48 h, the cells were transfected by Superfect (Qiagen) with 0.3 μg of 3416-pTK-TATA-Luc construct, together with 1.5 μg of either pSG5-empty plasmid or pSG5-hAR expressing plasmid. […] When indicated, the synthetic compounds were added alone to the cell medium. […] It was dissolved in 0.001% (final concentration) ethanol. Control cells were treated with the vehicle alone. Lysates were prepared and the luciferase activity was measured using a luciferase assay system (Promega). The results were corrected using CH110-expressed beta-galactosidase activity (Amersham Biosciences) and luciferase activity was expressed as fold induction. Results were obtained from two or three different experiments, each performed in duplicate. Mean and SEM are shown."}}}
{"smiles": "N#Cc1ccc(NC(=O)[C@](O)(Cc2cccs2)CS(=O)(=O)c2ccc(F)cc2)cc1C(F)(F)F", "note": "[(R)-XXIII-6]", "values": [{"measurement": "GI50", "setting": "LNCaP cells; Homo sapiens, LNCaP, 144 h", "result": 8.9, "unit": "µM"}, {"measurement": "LC50", "setting": "LNCaP cells; LNCaP cells, 144 h exposure, up to 20 μM", "result": "n.r."}, {"measurement": "cytotoxic effect (cytostatic / cytocidal), in words", "setting": "LNCaP cells; LNCaP, 144 h, up to 20 μM", "result": "suppress completely the cell growth"}, {"measurement": "hepato-toxicity, in words", "setting": "[1]", "result": "did not display toxicity"}, {"measurement": "inhibition of R1881-induced AR transcriptional activation (antagonistic activity), in words", "setting": "[2]; compound 10 μM with 10 nM R1881", "result": "antagonistic activity"}, {"measurement": "agonistic activity on AR transcription, in words", "setting": "[2]; compound alone, 10 nM to 1 μM or 10 μM", "result": "does not seem to display agonistic activity"}]}
